According to ChEMBL document CHEMBL5113530, “Butyrylation Meets Adipogenesis-Probed by a p300-Catalyzed Acylation-Specific Small Molecule Inhibitor: Implication in Anti-obesity Therapy” (J Med Chem, 2022):
The source made the active and inactive calls. The calls are words filed in the database; no cut-off is given here.

Key:
[1] = tested on: Mus musculus; assay: Anti-obesity activity in db/db mouse assessed as daily food consumption […] at 50 mg/kg, po qd administered for 30 days and measured every week (reference value: 37.8 +/- 1.64 g); assay type: functional; settings: time 30 day
[2] = tested on: 3T3-L1; assay: Anti-adipogenic activity against mouse 3T3-L1 cells assessed as downregulation of SLC2A4 mRNA expression at 25 uM measured after 7 days by qRT-PCR analysis; assay type: functional, cell-based; settings: time 7.0 day
[3] = Toxicity in male Sprague-Dawley rat assessed as average food intake at 1000 mg/kg, po administered as single dose measured on day 14 (Rvb =21.24 g/day); assay type: organism-based; settings: in vivo, 336 h, time 14 day
[4] = target: Histone acetyltransferase p300 (Homo sapiens) (UniProt Q09472); assay: Inhibition of wild-type His-tagged EP300 catalytic domain catalyzed butyrylation (unknown origin) expressed in Escherichia coli BL21 (DE3) using Histone H3 as substrate at 25 uM preincubated with compound for 10 mins followed by butyryl-CoA addition and measured after 10 mins by Western blot analysis; settings: time 20.0 min
Histone acetyltransferase p300 (Homo sapiens), sequence (Q09472 whole entry, the tested form may be a part): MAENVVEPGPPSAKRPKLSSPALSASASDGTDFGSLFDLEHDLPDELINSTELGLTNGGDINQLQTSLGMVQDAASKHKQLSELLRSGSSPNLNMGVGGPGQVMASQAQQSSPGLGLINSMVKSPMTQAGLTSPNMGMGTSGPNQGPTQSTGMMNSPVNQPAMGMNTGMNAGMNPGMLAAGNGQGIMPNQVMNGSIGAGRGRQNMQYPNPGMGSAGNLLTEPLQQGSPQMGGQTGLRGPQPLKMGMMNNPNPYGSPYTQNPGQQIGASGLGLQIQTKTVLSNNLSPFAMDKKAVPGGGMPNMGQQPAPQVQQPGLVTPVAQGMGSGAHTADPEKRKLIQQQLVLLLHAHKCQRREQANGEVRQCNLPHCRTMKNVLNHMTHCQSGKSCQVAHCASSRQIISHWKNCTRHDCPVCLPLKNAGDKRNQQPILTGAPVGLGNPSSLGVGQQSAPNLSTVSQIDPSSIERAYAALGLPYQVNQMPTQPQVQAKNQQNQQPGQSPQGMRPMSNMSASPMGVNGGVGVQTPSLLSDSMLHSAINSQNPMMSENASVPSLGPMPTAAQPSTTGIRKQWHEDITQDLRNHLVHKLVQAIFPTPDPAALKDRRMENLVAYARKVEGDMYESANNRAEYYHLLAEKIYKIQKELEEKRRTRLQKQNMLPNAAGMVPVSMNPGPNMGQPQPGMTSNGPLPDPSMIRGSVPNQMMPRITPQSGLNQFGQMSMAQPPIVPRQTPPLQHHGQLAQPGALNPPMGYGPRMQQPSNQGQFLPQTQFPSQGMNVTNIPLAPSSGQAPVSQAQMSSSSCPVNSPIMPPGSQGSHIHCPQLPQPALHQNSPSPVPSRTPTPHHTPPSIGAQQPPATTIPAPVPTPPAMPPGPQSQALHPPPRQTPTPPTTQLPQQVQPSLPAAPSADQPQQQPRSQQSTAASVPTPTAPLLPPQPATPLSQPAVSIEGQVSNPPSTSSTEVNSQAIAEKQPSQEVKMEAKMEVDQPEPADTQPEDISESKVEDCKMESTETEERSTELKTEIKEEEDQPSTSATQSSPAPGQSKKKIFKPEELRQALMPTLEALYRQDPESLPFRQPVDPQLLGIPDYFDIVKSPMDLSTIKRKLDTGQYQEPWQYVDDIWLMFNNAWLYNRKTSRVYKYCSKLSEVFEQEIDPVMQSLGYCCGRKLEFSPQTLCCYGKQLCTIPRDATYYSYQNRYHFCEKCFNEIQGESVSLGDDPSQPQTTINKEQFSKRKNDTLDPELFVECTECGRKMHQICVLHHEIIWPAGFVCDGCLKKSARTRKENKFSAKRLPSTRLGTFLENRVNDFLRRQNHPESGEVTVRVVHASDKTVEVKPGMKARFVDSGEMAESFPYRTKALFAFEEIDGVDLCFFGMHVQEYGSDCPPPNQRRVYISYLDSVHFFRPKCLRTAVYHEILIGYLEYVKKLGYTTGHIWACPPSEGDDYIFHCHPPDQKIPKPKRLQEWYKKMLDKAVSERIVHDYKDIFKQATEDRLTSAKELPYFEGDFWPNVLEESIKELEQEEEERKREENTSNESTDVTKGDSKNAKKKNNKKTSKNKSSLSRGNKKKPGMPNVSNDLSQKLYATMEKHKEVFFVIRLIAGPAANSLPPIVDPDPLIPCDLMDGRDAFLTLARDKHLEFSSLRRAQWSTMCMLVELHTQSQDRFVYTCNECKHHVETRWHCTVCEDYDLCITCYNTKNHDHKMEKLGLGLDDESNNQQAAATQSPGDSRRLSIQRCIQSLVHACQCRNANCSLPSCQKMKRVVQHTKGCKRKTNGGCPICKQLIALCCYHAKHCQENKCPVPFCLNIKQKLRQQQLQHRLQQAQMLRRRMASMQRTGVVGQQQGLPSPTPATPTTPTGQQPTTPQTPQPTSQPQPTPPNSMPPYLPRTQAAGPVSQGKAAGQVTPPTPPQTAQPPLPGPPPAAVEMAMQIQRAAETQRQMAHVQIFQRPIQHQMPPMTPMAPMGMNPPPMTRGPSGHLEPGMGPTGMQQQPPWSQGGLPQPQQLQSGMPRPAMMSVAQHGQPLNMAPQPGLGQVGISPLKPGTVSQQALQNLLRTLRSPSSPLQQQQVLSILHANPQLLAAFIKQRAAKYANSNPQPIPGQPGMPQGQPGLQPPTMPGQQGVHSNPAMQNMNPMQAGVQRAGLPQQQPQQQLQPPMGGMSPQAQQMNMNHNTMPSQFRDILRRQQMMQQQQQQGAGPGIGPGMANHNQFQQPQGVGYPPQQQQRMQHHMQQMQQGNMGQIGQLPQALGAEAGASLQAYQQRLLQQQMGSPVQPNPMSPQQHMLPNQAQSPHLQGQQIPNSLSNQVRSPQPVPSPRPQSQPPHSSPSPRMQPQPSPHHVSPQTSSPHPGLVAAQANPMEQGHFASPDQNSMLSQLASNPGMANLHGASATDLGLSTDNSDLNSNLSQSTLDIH

[5] = Toxicity in male Sprague-Dawley rat assessed as average food intake at 500 mg/kg, po administered as single dose measured on day 14 (Rvb =21.24 g/day); assay type: organism-based; settings: in vivo, 336 h, time 14 day
[6] = tested on: Mus musculus; assay: Anti-obesity activity in C57BL6/J mouse model of high fat diet-induced obesity assessed as daily food consumption measured per day per mouse at 50 mg/kg (reference value: 1.95547 +/- 0.23142 g); assay type: functional
[7] = Toxicity in female Sprague-Dawley rat assessed as average water intake measured per day at 500 mg/kg, po administered as single dose measured on day 7 (Rvb =21 ml/day); assay type: organism-based; settings: in vivo, 168 h, time 7 day
[8] = Toxicity in male Sprague-Dawley rat assessed as effect on body weight at 500 mg/kg, po administered as single dose measured on day 1 (reference value: 174.75 +/- 7.61 g); assay type: organism-based; settings: in vivo, 24 h, time 1 day
[9] = Toxicity in male Sprague-Dawley rat assessed as average food intake at 500 mg/kg, po administered as single dose measured on day 7 (Rvb =20.24 g/day); assay type: organism-based; settings: in vivo, 168 h, time 7 day
[10] = Toxicity in male Sprague-Dawley rat assessed as average water intake measured per day at 1000 mg/kg, po administered as single dose measured on day 7 (Rvb =30 ml/day); assay type: organism-based; settings: in vivo, 168 h, time 7 day
[11] = tested on: Mus musculus; assay: Anti-obesity activity in db/db mouse assessed as reduction in adipocyte hypertrophy at 50 mg/kg, po qd administered for 30 days by hematoxylin and eosin staining based assay; assay type: functional, organism-based; settings: time 30.0 day
[12] = tested on: Mus musculus; assay: Anti-obesity activity in db/db mouse assessed as inhibition of slc2a4 expression at 50 mg/kg, po qd administered for 30 days by qRT-PCR analysis; assay type: functional, organism-based; settings: time 30.0 day
[13] = Mutagenicity in Salmonella typhimurium TA102 assessed as number of revertants measured per plate at 10 to 1000 incubated for 48 hrs in absence of rat liver S9 fraction by plate incorporation assay; assay type: toxicity; settings: salmonella enterica subsp. enterica serovar typhimurium, s9, 48 h, dose 10-1000 µg
[14] = tested on: Mus musculus; assay: Anti-obesity activity in db/db mouse assessed as reduction in hepatic steatosis at 50 mg/kg, po qd administered for 30 days by hematoxylin and eosin staining based assay; assay type: functional, organism-based; settings: time 30.0 day
[15] = Toxicity in male Sprague-Dawley rat assessed as average water intake measured per day at 500 mg/kg, po administered as single dose measured on day 1 (Rvb =32 ml/day); assay type: organism-based; settings: in vivo, 24 h, time 1 day
[16] = tested on: Mus musculus; assay: Anti-obesity activity in C57BL6/J mouse model of high fat diet-induced obesity assessed as reduction in H4K5 butyrylation level in epididymal fat pad at 50 mg/kg by Immunoblotting analysis; assay type: functional, organism-based
[17] = Toxicity in male Sprague-Dawley rat assessed as average food intake at 1000 mg/kg, po administered as single dose measured on day 7 (Rvb =20.24 g/day); assay type: organism-based; settings: in vivo, 168 h, time 7 day
[18] = Toxicity in female Sprague-Dawley rat assessed as average food intake at 250 mg/kg, po administered as single dose measured on day 14 (Rvb =15.95 g/day); assay type: organism-based; settings: in vivo, 336 h, time 14 day
[19] = tested on: 3T3-L1; assay: Cytotoxicity against in mouse 3T3-L1 cells assessed as effect on cellular oxidoreductase activity at 25 uM incubated for 6 days by MTT assay; assay type: toxicity, cell-based; settings: 3t3-l1, 144 h, time 6 day
[20] = Toxicity in female Sprague-Dawley rat assessed as average water intake measured per day at 500 mg/kg, po administered as single dose measured on day 1 (Rvb =25 ml/day); assay type: organism-based; settings: in vivo, 24 h, time 1 day
[21] = Mutagenicity in Salmonella typhimurium TA98 assessed as number of revertants measured per plate at 10 to 1000 incubated for 48 hrs in absence of rat liver S9 fraction by plate incorporation assay; assay type: toxicity; settings: salmonella enterica subsp. enterica serovar typhimurium, s9, 48 h, dose 10-1000 µg
[22] = tested on: 3T3-L1; assay: Anti-adipogenic activity against mouse 3T3-L1 cells assessed as downregulation of ACSS2 mRNA expression at 25 uM measured after 7 days by qRT-PCR analysis; assay type: functional, cell-based; settings: time 7.0 day
[23] = Toxicity in female Sprague-Dawley rat assessed as average food intake at 250 mg/kg, po administered as single dose measured on day 1 (Rvb =17.84 g/day); assay type: organism-based; settings: in vivo, 24 h, time 1 day
[24] = Toxicity in female Sprague-Dawley rat assessed as average food intake at 500 mg/kg, po administered as single dose measured on day 1 (Rvb =17.84 g/day); assay type: organism-based; settings: in vivo, 24 h, time 1 day
[25] = tested on: Mus musculus; assay: Anti-obesity activity in db/db mouse assessed as reduction in H4K5 butyrylation level in liver at 50 mg/kg, po qd administered for 30 days by DAPI staining based immunofluorescence microscopic analysis; assay type: functional, organism-based; settings: time 30.0 day
[26] = Toxicity in male Sprague-Dawley rat assessed as effect on body weight at 1000 mg/kg, po administered as single dose measured on day 7 (reference value: 217.38 +/- 11.38 g); assay type: organism-based; settings: in vivo, 168 h, time 7 day
[27] = Toxicity in male Sprague-Dawley rat assessed as average food intake at 250 mg/kg, po administered as single dose measured on day 14 (Rvb =21.24 g/day); assay type: organism-based; settings: in vivo, 336 h, time 14 day
[28] = Toxicity in female Sprague-Dawley rat assessed as effect on body weight at 1000 mg/kg, po administered as single dose measured on day 7 (Rvb =169.81 +/- 6.57 g); assay type: organism-based; settings: in vivo, 168 h, time 7 day
[29] = Toxicity in male Sprague-Dawley rat assessed as average water intake measured per day at 1000 mg/kg, po administered as single dose measured on day 1 (Rvb =32 ml/day); assay type: organism-based; settings: in vivo, 24 h, time 1 day
[30] = Toxicity in male Sprague-Dawley rat assessed as effect on body weight at 500 mg/kg, po administered as single dose measured on day 14 (Rvb =231.13 +/- 18.38 g); assay type: organism-based; settings: in vivo, 336 h, time 14 day
[31] = Mutagenicity in Salmonella typhimurium TA98 assessed as number of revertants measured per plate at 10 to 1000 incubated for 48 hrs in presence of rat liver S9 fraction by plate incorporation assay; assay type: toxicity; settings: salmonella enterica subsp. enterica serovar typhimurium, s9, 48 h, dose 10-1000 µg
[32] = Toxicity in male Sprague-Dawley rat assessed as average water intake measured per day at 500 mg/kg, po administered as single dose measured on day 7 (Rvb =30 ml/day); assay type: organism-based; settings: in vivo, 168 h, time 7 day
[33] = Stability of compound in mouse 3T3-L1 cells measured after 6 days by LC-ESI-MS analysis; assay type: ADME, cell-based; settings: 3t3-l1, 144 h, time 6 day

inhibition [4]: Active
Stability [33]: Stable
SMILES: COc1ccc(C(=O)C2=C3OC(C)(C)[C@@H](CC=C(C)C)C[C@@]34C[C@@H](CC=C(C)C)C(C)(C)[C@](CC=C(C)C)(C2=O)C4=O)cc1OC
Activity [1]: 34 g
Activity [2]: Active
Activity [3]: 19.95 g/day
Activity [5]: 23.29 g/day
Activity [6]: 2.041 g
Activity [7]: 23 mL
Activity [8]: 176.3 g
Activity [9]: 21.14 g/day
Activity [10]: 31 mL
Activity [11]: Active
Activity [12]: Active
Activity [13]: Non-Toxic
Activity [14]: Active
Activity [15]: 36 mL
Activity [16]: Active
Activity [17]: 20.74 g/day
Activity [18]: 16.65 g/day
Activity [19]: Non-Toxic
Activity [20]: 25 mL
Activity [21]: Non-Toxic
Activity [22]: Active
Activity [23]: 20 g/day
Activity [24]: 18.22 g/day
Activity [25]: Active
Activity [26]: 217.65 g
Activity [27]: 22.62 g/day
Activity [28]: 178.58 g
Activity [29]: 34 mL
Activity [30]: 243.14 g
Activity [31]: Non-Toxic
Activity [32]: 33 mL
